# Test system: patients with a solid tumor
# Conditions: human, in vivo
# Experimental: This study was carried out as an open-label phase I clinical trial for Compound A. The study was composed of a dose-escalation part to evaluate the safety and tolerability of Compound A, and an expansion part to evaluate the safety, tolerability and preliminary efficacy of Compound A. Each dose in the Examples is expressed as a dose of Compound A in free form.
# In the dose-escalation part, the safety and tolerability of Compound A was evaluated at a plurality of doses using a 3+3 design. The starting dose of Compound A was set at 10 mg BID (twice daily).
# NCI CTCAE v5.0 was used to evaluate the severity.
# This was performed using the analysis subject populations for all safety evaluations (excluding DLT evaluations).
# Summary statistics for the safety data (continuous variables: number of cases, mean value, standard deviation, median, minimum and maximum values; categorical variables: number of cases and proportion) were calculated based on the actually administered treatments. […] The following laboratory tests were performed: hematological tests (red blood cell count, hemoglobin, hematocrit value, platelet count, white blood cell count, white blood cell fractions (neutrophils, lymphocytes, monocytes, eosinophils, basophils) coagulation test: INR), blood biochemical tests (liver function tests (AST, ALT, ALP, GGT, total bilirubin, direct bilirubin), renal function test (BUN, creatinine), other tests (blood glucose level, albumin, cholesterol, LDH, total protein, uric acid, amylase, lipase, Na, K, Cl, Ca, phosphorus, Mg, virus test: HBs antigen a, HBs antibody a, HBc antibody a, HCV antibody a, HIV antibody a, HBV DNAb, B-CTXc, 25-hydroxyvitamin Dd), and urine test (pH, protein, sugar, ketone bodies, occult blood, specific gravity)).
smiles,measurement,value
"C=CCN1CC(=O)N2[C@@H](Cc3ccc(O)cc3F)C(=O)N(Cc3cccc(N4CC(N5CCN(CC)CC5)C4)n3)C[C@@H]2N1C(=O)NCc1ccccc1 [Compound A, (6S,9aS)—N-benzyl-8-({6-[3-(4-ethylpiperazin-1-yl)azetidin-1-yl]pyridin-2-yl}methyl)-6-(2-fluoro-4-hydroxybenzyl)-4,7-dioxo-2-(prop-2-en-1-yl)hexahydro-2H-pyrazino[2,1-c][1,2,4]triazine-1 (6H)-carboxamide]","Subjects with Any Treatment-related TEAEs, Any Grade, (%)",(89.3) %
same,"Subjects with Any Treatment-related TEAEs, Grade ≥3, (%)",(10.7) %
same,"TEAE Alanine aminotransferase increased, Any Grade, (%)",(14.3) %
same,"TEAE Amylase increased, Any Grade, (%)",(3.6) %
same,"TEAE Anemia, Any Grade, (%)",(10.7) %
same,"TEAE Aspartate aminotransferase increased, Any Grade, (%)",(14.3) %
same,"TEAE C-telopeptide increased, Any Grade, (%)",(3.6) %
same,"TEAE Decreased appetite, Any Grade, (%)",(10.7) %
same,"TEAE Decreased appetite, Grade ≥3, (%)",(7.1) %
same,"TEAE Diarrhea, Any Grade, (%)",(7.1) %
same,"TEAE Electrocardiogram QT prolonged, Any Grade, (%)",(3.6) %
same,"TEAE Hyperphosphatemia, Any Grade, (%)",(3.6) %
same,"TEAE Lipase increased, Any Grade, (%)",(3.6) %
same,"TEAE Lipase increased, Grade ≥3, (%)",(3.6) %
same,"TEAE Liver disorder, Any Grade, (%)",(3.6) %
same,"TEAE Nausea, Any Grade, (%)",(78.6) %
same,"TEAE Osteoporosis, Any Grade, (%)",(3.6) %
same,"TEAE Rash, Any Grade, (%)",(3.6) %
same,"TEAE Sinus tachycardia, Any Grade, (%)",(3.6) %
same,"TEAE Stomatitis, Any Grade, (%)",(3.6) %
same,"TEAE Vomiting, Any Grade, (%)",(67.9) %
same,"TEAE White blood cell count decreased, Any Grade, (%)",(7.1) %
same,recommended dose,less than 160 mg BID

# Source: patent publication US20250222003A1, “PHARMACEUTICAL COMPOSITION FOR TREATING SOLID TUMORS” (Eisai R&D Management Co., Ltd., priority 2021, published 2025)
